Measurements published in the supplement of paper PMC6045584.
± gives the standard deviation of the averaged measurements.

Columns and labels:
GEFITINIB = compound: COc1cc2ncnc(Nc3ccc(F)c(Cl)c3)c2cc1OCCCN1CCOCC1 [GEFITINIB]; experiment: surviving fraction relative to DMSO-only wells; higher = less growth inhibition; conditions: exposure time: 5 days
Outline: (§1)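 Log-phase tumour cells were seeded at 250–500 per well in 384-well plates and, from 24 hours after seeding, exposed continuously for five days to inhibitors at 0.5, 1, 5, 10, 50, 100, 500 and 1000 nM. Surviving fraction is CellTiter-Glo luminescence normalised to the median of DMSO-only wells. Luminescence was measured after 10 minutes at room temperature, and only lines screened three times with replicate Pearson r >0.7 and median Z' >0.3 were kept.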

PACLITAXEL = compound: CC(=O)O[C@H]1C(=O)[C@@]2(C)[C@H]([C@H](OC(=O)c3ccccc3)[C@]3(O)C[C@H](OC(=O)[C@H](O)[C@@H](NC(=O)c4ccccc4)c4ccccc4)C(C)=C1C3(C)C)[C@]1(OC(C)=O)CO[C@@H]1C[C@@H]2O [PACLITAXEL]; experiment: as above; conditions: exposure time: 5 days
Outline: as §1

| Test System | surviving fraction (GEFITINIB; 0.5 nM) | surviving fraction (GEFITINIB; 1 nM) | surviving fraction (GEFITINIB; 5 nM) | surviving fraction (GEFITINIB; 10 nM) | surviving fraction (GEFITINIB; 50 nM) | surviving fraction (GEFITINIB; 100 nM) | surviving fraction (GEFITINIB; 500 nM) | surviving fraction (GEFITINIB; 1000 nM) | surviving fraction (PACLITAXEL; 0.5 nM) | surviving fraction (PACLITAXEL; 1 nM) | surviving fraction (PACLITAXEL; 5 nM) | surviving fraction (PACLITAXEL; 10 nM) | surviving fraction (PACLITAXEL; 50 nM) | surviving fraction (PACLITAXEL; 100 nM) | surviving fraction (PACLITAXEL; 500 nM) | surviving fraction (PACLITAXEL; 1000 nM) |
| --- | --- | --- | --- | --- | --- | --- | --- | --- | --- | --- | --- | --- | --- | --- | --- | --- |
| 22RV1 PROSTATE | 1 ± 0.023 | 0.984 ± 0.18 | 0.979 ± 0.085 | 1 ± 0.058 | 0.987 ± 0.18 | 1.03 ± 0.15 | 1.04 ± 0.17 | 1.03 ± 0.12 | 1.02 ± 0.057 | 1.04 ± 0.066 | 0.121 ± 0.018 | 0.0847 ± 0.0021 | 0.0603 ± 0.0061 | 0.053 ± 0.0036 | 0.0467 ± 0.0057 | 0.0553 ± 0.0046 |
| 93VU HEADNECK |  | 1.07 ± 0.075 | 1.08 ± 0.027 | 1.04 ± 0.055 | 0.878 ± 0.044 | 0.751 ± 0.034 | 0.449 ± 0.044 | 0.383 ± 0.062 | 0.972 ± 0.067 | 0.752 ± 0.059 | 0.326 ± 0.015 | 0.266 ± 0.014 | 0.157 ± 0.011 | 0.134 ± 0.0064 | 0.135 ± 0.018 | 0.132 ± 0.0017 |
| 143B BONE | 1.07 ± 0.023 | 1.08 ± 0.075 | 1.11 ± 0.084 | 1.1 ± 0.033 | 1.14 ± 0.077 | 1.12 ± 0.054 | 1.14 ± 0.11 | 1.13 ± 0.15 | 0.9755 ± 0.0078 | 0.99 ± 0.031 | 0.424 ± 0.016 | 0.265 ± 0.018 | 0.134 ± 0.0099 | 0.089 ± 0.013 | 0.0575 ± 0.0092 | 0.0655 ± 0.0064 |
| A549 LUNG | 1.05 ± 0.043 | 1.05 ± 0.024 | 1.07 ± 0.04 | 1.02 ± 0.013 | 1.05 ± 0.033 | 1.05 ± 0.051 | 1.05 ± 0.047 | 1.03 ± 0.037 | 0.982 ± 0.013 | 1.04 ± 0.031 | 0.369 ± 0.011 | 0.234 ± 0.0055 | 0.182 ± 0.011 | 0.186 ± 0.01 | 0.172 ± 0.0087 | 0.179 ± 0.0038 |
| ASKA SYNOVIAL | 1.13 ± 0.052 | 1.11 ± 0.06 | 1.05 ± 0.085 | 1.16 ± 0.051 | 1.19 ± 0.077 | 1.16 ± 0.073 | 1.08 ± 0.053 | 1.1 ± 0.058 | 0.851 ± 0.028 | 0.629 ± 0.052 | 0.203 ± 0.011 | 0.194 ± 0.0031 | 0.262 ± 0.0055 | 0.23 ± 0.011 | 0.199 ± 0.016 | 0.229 ± 0.01 |
| BT20 BREAST | 1.14 ± 0.02 | 1.19 ± 0.063 | 1.13 ± 0.11 | 1.15 ± 0.043 | 1.06 ± 0.011 | 1.06 ± 0.013 | 1.05 ± 0.04 | 0.984 ± 0.085 | 0.956 ± 0.11 | 0.718 ± 0.026 | 0.0893 ± 0.0055 | 0.0667 ± 0.0057 | 0.0593 ± 0.0063 | 0.058 ± 0.01 | 0.0513 ± 0.0049 | 0.0587 ± 0.011 |
| BT549 BREAST | 1.1 ± 0.18 | 1.03 ± 0.073 | 1.04 ± 0.13 | 0.946 ± 0.094 | 1.17 ± 0.14 | 1.21 ± 0.046 | 1.057 ± 0.007 | 1.11 ± 0.15 | 0.963 ± 0.13 | 0.219 ± 0.04 | 0.0553 ± 0.0085 | 0.0387 ± 0.0025 | 0.049 ± 0.0079 | 0.041 ± 0.0027 | 0.038 ± 0.0053 | 0.0463 ± 0.014 |
| CADOES1 SOFT TISSUE | 1.01 ± 0.045 | 0.9 ± 0.058 | 0.852 ± 0.063 | 0.906 ± 0.13 | 0.824 ± 0.12 | 0.942 ± 0.11 | 0.953 ± 0.12 | 0.995 ± 0.16 | 1 ± 0.062 | 0.994 ± 0.13 | 0.955 ± 0.039 | 0.846 ± 0.078 | 0.38 ± 0.11 | 0.188 ± 0.058 | 0.052 ± 0.0017 | 0.0457 ± 0.0015 |
| CAL51 BREAST | 1.01 ± 0.089 | 0.995 ± 0.07 | 1.01 ± 0.015 | 1 ± 0.036 | 1.08 ± 0.035 | 1.02 ± 0.016 | 1.13 ± 0.015 | 1.07 ± 0.066 | 0.824 ± 0.04 | 0.642 ± 0.076 | 0.0935 ± 0.013 | 0.0585 ± 0.0033 | 0.0427 ± 0.0018 | 0.0332 ± 0.0037 | 0.0295 ± 0.0005 | 0.0332 ± 0.0027 |
| CAL72 BONE | 1.01 ± 0.11 | 1.02 ± 0.088 | 1.05 ± 0.099 | 1.02 ± 0.082 | 1.11 ± 0.054 | 1.13 ± 0.098 | 1.07 ± 0.074 | 1.05 ± 0.11 | 0.876 ± 0.061 | 0.459 ± 0.078 | 0.386 ± 0.047 | 0.297 ± 0.032 | 0.191 ± 0.018 | 0.135 ± 0.031 | 0.112 ± 0.0096 | 0.123 ± 0.025 |
| CAL120 BREAST | 0.964 ± 0.046 | 0.965 ± 0.031 | 0.968 ± 0.025 | 0.956 ± 0.039 | 1.016 ± 0.0095 | 0.985 ± 0.031 | 0.995 ± 0.035 | 0.93 ± 0.042 | 0.744 ± 0.044 | 0.602 ± 0.022 | 0.158 ± 0.014 | 0.0937 ± 0.005 | 0.105 ± 0.003 | 0.0962 ± 0.0023 | 0.0798 ± 0.0061 | 0.0923 ± 0.007 |
| CASKI CERVIX | 0.956 ± 0.025 | 0.929 ± 0.096 | 0.851 ± 0.032 | 0.815 ± 0.042 | 0.556 ± 0.015 | 0.471 ± 0.011 | 0.308 ± 0.018 | 0.213 ± 0.0095 | 0.857 ± 0.054 | 0.619 ± 0.029 | 0.0537 ± 0.011 | 0.0343 ± 0.00058 | 0.037 ± 0.005 | 0.0387 ± 0.0067 | 0.0313 ± 0.005 | 0.0303 ± 0.0045 |
| CCK81 LARGE INTESTINE | 0.85 ± 0.091 | 0.849 ± 0.081 | 0.77 ± 0.12 | 0.72 ± 0.06 | 0.628 ± 0.091 | 0.325 ± 0.12 | 0.0823 ± 0.018 | 0.076 ± 0.012 |  |  |  |  |  |  |  |  |
| CHLA90 AUTONOMIC GANGLIA | 0.939 ± 0.022 | 0.905 ± 0.089 | 0.873 ± 0.052 | 0.848 ± 0.056 | 0.902 ± 0.069 | 0.876 ± 0.041 | 0.881 ± 0.044 | 0.801 ± 0.066 | 0.957 ± 0.032 | 0.948 ± 0.056 | 0.507 ± 0.022 | 0.231 ± 0.026 | 0.0937 ± 0.01 | 0.076 ± 0.016 | 0.0513 ± 0.0046 | 0.0577 ± 0.009 |
| CME SYNOVIAL | 1.32 ± 0.14 | 1.3 ± 0.036 | 1.4 ± 0.12 | 1.44 ± 0.17 | 1.39 ± 0.12 | 1.41 ± 0.17 | 1.28 ± 0.096 | 1.18 ± 0.047 | 1.07 ± 0.11 | 0.933 ± 0.11 | 0.524 ± 0.12 | 0.279 ± 0.073 | 0.258 ± 0.02 | 0.219 ± 0.028 | 0.2 ± 0.041 | 0.262 ± 0.02 |
| DU4475 BREAST | 0.921 ± 0.068 | 0.955 ± 0.045 | 0.82 ± 0.095 | 0.914 ± 0.01 | 0.879 ± 0.14 | 0.906 ± 0.16 | 1.01 ± 0.1 | 0.889 ± 0.069 | 0.975 ± 0.17 | 0.946 ± 0.26 | 0.243 ± 0.069 | 0.129 ± 0.021 | 0.0387 ± 0.013 | 0.044 ± 0.0089 | 0.0463 ± 0.02 | 0.035 ± 0.0085 |
| G292 BONE | 0.976 ± 0.023 | 1.03 ± 0.045 | 1.04 ± 0.035 | 1.059 ± 0.0083 | 1.03 ± 0.052 | 1.04 ± 0.04 | 0.954 ± 0.038 | 0.9402 ± 0.0094 | 0.727 ± 0.028 | 0.472 ± 0.021 | 0.196 ± 0.0038 | 0.161 ± 0.0064 | 0.148 ± 0.0067 | 0.147 ± 0.0013 | 0.1228 ± 0.00076 | 0.128 ± 0.0067 |
| H23 LUNG | 1.01 ± 0.07 | 0.997 ± 0.032 | 0.989 ± 0.014 | 0.918 ± 0.03 | 0.603 ± 0.075 | 0.458 ± 0.053 | 0.356 ± 0.05 | 0.346 ± 0.0093 | 0.951 ± 0.03 | 0.866 ± 0.022 | 0.18 ± 0.0027 | 0.14 ± 0.0095 | 0.113 ± 0.0091 | 0.108 ± 0.0042 | 0.0867 ± 0.0067 | 0.089 ± 0.003 |
| HCC38 BREAST | 1.05 ± 0.086 | 1.33 ± 0.089 | 1.25 ± 0.17 | 1.24 ± 0.1 | 1.23 ± 0.13 | 1.29 ± 0.03 | 1.1 ± 0.096 | 1.18 ± 0.053 | 0.894 ± 0.17 | 0.492 ± 0.062 | 0.138 ± 0.03 | 0.11 ± 0.0059 | 0.112 ± 0.053 | 0.094 ± 0.026 | 0.108 ± 0.0074 | 0.0823 ± 0.0076 |
| HCC70 BREAST | 1.03 ± 0.13 | 0.976 ± 0.048 | 1.15 ± 0.14 | 1.02 ± 0.075 | 1.03 ± 0.042 | 1.01 ± 0.088 | 0.815 ± 0.048 | 0.848 ± 0.068 | 0.937 ± 0.071 | 0.81 ± 0.07 | 0.218 ± 0.029 | 0.102 ± 0.019 | 0.099 ± 0.032 | 0.0517 ± 0.014 | 0.0543 ± 0.015 | 0.0647 ± 0.031 |
| HCC78 LUNG | 1.03 ± 0.2 | 0.938 ± 0.12 | 1.01 ± 0.1 | 0.994 ± 0.12 | 0.967 ± 0.12 | 0.963 ± 0.067 | 0.711 ± 0.23 | 0.668 ± 0.19 | 0.846 ± 0.3 | 0.486 ± 0.046 | 0.16 ± 0.036 | 0.104 ± 0.021 | 0.0717 ± 0.019 | 0.077 ± 0.011 | 0.0673 ± 0.013 | 0.1 ± 0.018 |
